Test results from US7081460B2, “Quinazoline and quinazoline-like compounds for the treatment of integrin-mediated disorders” (Ortho-McNeil Pharmaceutical, Inc., priority 2001, dated 2006).

Tests used:
Human αvβ3 = target: T1, Human αvβ3 (Homo sapiens, UniProt P05106+P06756); test: In vitro solid phase purified αvβ3 binding assay (vitronectin/αvβ3); conditions: isolated human αvβ3, 5 nM vitronectin; read-out: αvβ3 Binding IC50
T1 construct: purchased Chemicon International Inc., Temecula, Calif
Description: (§1) In vitro Solid Phase Purified αvβ3 Binding Assay The vitronectin/αvβ3 binding assay methods were derived from Mehta et al. (Biochem J. 1998, 330, 861). Human αvβ3 (Chemicon International Inc., Temecula, Calif.), at a concentration of 1 μg/ml dissolved in Tris buffer (20 mM Tris, 1 mM CaCl2, 1 mM MgCl2, 10 μM MnCl2, 150 mM NaCl), was immobilized on Immulon 96 well plates (Dynex Technologies, Chantilly, Va.) overnight at 4° C. Plates were washed and treated with blocking buffer (3% BSA in Tris buffer) for 2 h at 37 C. Plates were then rinsed 2 times in Tris buffer containing 0.3% BSA and 0.2% Tween20 (polyoxyethylenesorbitan monolaurate). Five minutes prior to the addition of 5 nM vitronectin (Sigma, St. Louis, Mo.), compounds of the invention were added to wells in duplicate. Each plate included c-RGDfV as an internal control. Following a 3 hour incubation at 37° C., plates were washed 5 times in assay buffer. An anti-human vitronectin IgG rabbit polyclonal antibody (Calbiochem, San Diego, Calif.) was added (1:2000) and plates were incubated for 1 hour at room temperature. VectaStain ABC peroxidase kit reagents (Vector Laboratories, Burlingame, Calif.) employing a biotin labeled anti-rabbit IgG, were utilized for detection of bound antibody. Plates were read at 490 nm on a Molecular Devices (Sunnyvale, Calif.) microplate reader. […] The plate was covered and incubated overnight at 4° C. The GPIIb/IIIa solution was discarded and 150 μl of 5% BSA was added and incubated at RT for 1–3 h. The plate was washed extensively with modified Tyrodes buffer. Biotinylated fibrinogen (25 μl/well) at 2× final concentration was added to the wells that contain the test compounds (25 μl/well). The plate was covered and incubated at RT for 2–4 h. Twenty minutes prior to incubation completion, one drop of Reagent A (VectaStain ABC Horse Radish Peroxidase kit, Vector Laboratories, Inc.) and one drop Reagent B were added with mixing to 5 mL modified Tyrodes buffer mix and let stand. The ligand solution was discarded and the plate washed (5×200 μl/well) with modified Tyrodes buffer. Vecta Stain HRP-Biotin-Avidin reagent (50 μl/well, as prepared above) was added and incubated at RT for 15 min. The Vecta Stain solution was discarded and the wells washed (5×200 μl/well) with modified Tyrodes buffer. Developing buffer (10 mL of 50 mM citrate/phosphate buffer @ pH 5.3, 6 mg o-phenylenediamine, 6 μl 30% H2O2; 50 μl/well) was added and incubated at rt for 3–5 min, and then 2 N H2SO4 (50 μl/well) was added. The absorbance was read at 490 nm.

GPIIb/IIIa = GPIIb/IIIa (Homo sapiens, UniProt P05106+P08514); test: In vitro solid phase purified glycoprotein IIb/IIIa binding assay (biotinylated fibrinogen); conditions: RGD-affinity purified GPIIb/IIIa, biotinylated fibrinogen; read-out: GPIIb/IIIa Binding IC50
Chain of GPIIb/IIIa (P08514 32-887 limits assumed): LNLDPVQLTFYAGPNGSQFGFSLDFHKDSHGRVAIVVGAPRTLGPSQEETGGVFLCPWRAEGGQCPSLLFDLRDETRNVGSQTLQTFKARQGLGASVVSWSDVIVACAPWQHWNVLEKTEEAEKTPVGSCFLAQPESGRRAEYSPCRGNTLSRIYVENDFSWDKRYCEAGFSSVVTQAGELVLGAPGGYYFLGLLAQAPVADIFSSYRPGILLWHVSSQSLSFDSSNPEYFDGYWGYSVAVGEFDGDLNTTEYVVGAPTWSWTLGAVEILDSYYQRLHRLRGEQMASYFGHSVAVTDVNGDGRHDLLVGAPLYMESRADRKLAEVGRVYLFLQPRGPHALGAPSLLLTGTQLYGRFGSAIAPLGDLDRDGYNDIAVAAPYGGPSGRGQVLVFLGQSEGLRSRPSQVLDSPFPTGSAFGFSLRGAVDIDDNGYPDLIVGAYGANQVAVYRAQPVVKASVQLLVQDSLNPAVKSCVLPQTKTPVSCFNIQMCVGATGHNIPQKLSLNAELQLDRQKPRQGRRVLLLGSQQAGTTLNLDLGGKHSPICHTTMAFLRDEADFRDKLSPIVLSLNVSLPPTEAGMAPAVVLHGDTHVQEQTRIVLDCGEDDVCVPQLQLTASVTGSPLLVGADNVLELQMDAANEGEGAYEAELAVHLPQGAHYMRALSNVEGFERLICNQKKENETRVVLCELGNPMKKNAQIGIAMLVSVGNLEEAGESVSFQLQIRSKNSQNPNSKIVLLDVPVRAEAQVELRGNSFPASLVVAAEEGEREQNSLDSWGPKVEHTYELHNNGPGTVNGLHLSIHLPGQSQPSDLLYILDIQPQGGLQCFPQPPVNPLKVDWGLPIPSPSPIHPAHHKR
Chain of GPIIb/IIIa (P08514 891-1039 partner limits assumed): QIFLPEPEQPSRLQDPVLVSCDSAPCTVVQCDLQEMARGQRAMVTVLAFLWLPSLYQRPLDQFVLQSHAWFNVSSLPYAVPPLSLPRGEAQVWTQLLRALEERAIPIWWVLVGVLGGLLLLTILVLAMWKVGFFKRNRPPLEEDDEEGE
Chain of GPIIb/IIIa (P05106 27-788): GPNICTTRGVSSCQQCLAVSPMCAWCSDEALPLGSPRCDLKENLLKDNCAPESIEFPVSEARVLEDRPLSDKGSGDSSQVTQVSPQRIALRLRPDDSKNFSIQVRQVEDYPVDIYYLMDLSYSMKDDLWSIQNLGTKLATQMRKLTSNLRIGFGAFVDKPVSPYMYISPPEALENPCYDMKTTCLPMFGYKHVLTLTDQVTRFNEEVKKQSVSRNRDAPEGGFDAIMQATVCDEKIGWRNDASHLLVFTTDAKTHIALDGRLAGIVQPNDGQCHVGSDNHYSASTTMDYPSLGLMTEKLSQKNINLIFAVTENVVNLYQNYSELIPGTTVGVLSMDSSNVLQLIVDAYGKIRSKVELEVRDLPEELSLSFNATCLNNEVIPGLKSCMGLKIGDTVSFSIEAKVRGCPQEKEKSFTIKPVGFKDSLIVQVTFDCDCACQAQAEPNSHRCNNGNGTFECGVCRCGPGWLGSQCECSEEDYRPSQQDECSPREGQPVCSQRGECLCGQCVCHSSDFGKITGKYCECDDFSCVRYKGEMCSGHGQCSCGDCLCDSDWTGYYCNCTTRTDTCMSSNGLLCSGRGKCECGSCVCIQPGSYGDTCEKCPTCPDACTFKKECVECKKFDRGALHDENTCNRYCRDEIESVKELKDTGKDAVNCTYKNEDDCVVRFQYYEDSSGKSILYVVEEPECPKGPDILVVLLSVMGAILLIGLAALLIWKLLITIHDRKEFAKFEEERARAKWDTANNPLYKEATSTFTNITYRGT
Description: as §1

T1 sequence (P06756 31-889 limits assumed): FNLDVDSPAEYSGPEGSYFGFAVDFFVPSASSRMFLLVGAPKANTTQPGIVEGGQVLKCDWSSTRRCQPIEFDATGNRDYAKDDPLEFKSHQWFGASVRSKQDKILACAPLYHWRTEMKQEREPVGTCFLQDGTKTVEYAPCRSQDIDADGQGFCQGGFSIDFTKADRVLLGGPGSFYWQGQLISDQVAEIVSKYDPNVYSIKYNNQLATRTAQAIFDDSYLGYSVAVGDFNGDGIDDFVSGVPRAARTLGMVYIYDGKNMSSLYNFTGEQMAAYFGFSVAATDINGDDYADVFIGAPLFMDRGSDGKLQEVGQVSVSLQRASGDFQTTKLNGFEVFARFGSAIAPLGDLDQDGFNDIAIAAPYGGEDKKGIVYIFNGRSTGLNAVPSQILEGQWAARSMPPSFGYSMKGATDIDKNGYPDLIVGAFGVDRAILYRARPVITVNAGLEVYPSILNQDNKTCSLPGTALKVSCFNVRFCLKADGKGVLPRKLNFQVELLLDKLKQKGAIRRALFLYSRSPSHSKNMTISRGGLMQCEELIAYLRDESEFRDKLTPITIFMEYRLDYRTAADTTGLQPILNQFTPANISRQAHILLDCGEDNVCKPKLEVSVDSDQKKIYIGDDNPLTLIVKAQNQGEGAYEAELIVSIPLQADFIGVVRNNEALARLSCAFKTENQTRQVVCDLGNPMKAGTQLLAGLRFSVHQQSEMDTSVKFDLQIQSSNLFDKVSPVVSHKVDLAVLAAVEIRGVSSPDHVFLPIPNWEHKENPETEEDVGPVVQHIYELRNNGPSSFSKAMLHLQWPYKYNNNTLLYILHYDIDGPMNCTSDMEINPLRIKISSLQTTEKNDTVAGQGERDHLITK
T1 sequence (P06756 891-1048 partner limits assumed): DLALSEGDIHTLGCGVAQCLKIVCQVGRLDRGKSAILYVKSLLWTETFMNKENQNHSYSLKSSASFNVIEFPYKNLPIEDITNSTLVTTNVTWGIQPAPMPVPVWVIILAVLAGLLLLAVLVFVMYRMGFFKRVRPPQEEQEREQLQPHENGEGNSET
T1 sequence (P05106 27-788): as the sequence (P05106 27-788) above

| SMILES | IC50 (Human αvβ3) | IC50 (GPIIb/IIIa) |
| --- | --- | --- |
| Cc1c(C)c(C)c(S(=O)(=O)N[C@@H](Cc2nc3ccc(/C=C/CNc4nccn4C)cc3c(=O)[nH]2)C(=O)O)c(C)c1C [Compound 30, (αS)-3,4-dihydro-6-[(1E)-3-[(1-methyl-1H-imidazol-2-yl)amino]-1-propenyl]-4-oxo-α-[[(2,3,4,5,6-pentamethylphenyl)sulfonyl]amino]-2-quinazolinepropanoic acid] | 200 nM | 83 nM |
| Cc1c(C)c(C)c(S(=O)(=O)N[C@@H](Cc2nc3ccc(/C=C/CN4CCCC4=N)cc3c(=O)[nH]2)C(=O)O)c(C)c1C [Compound 27, (αS)-3,4-dihydro-6-[(1E)-3-(2-imino-1-pyrrolidinyl)-1-propenyl]-4-oxo-α-[[(2,3,4,5,6-pentamethylphenyl)sulfonyl]amino]-2-quinazolinepropanoic acid] | 120 nM | 19 nM |
| Cc1ccnc(NC/C=C/c2ccc3nc(C[C@H](NS(=O)(=O)c4c(C)c(C)c(C)c(C)c4C)C(=O)O)[nH]c(=O)c3c2)c1 [Compound 45, (αS)-3,4-dihydro-6-[(1E)-3-[(4-methyl-2-pyridinyl)amino]-1-propenyl]-4-oxo-α-[[(2,3,4,5,6-pentamethylphenyl)sulfonyl]amino]-2-quinazolinepropanoic acid] | 15 nM | 1800 nM |
| Cc1cccc(Cl)c1S(=O)(=O)N[C@@H](Cc1nc2ccc(/C=C/CNc3ccccn3)cc2c(=O)[nH]1)C(=O)O [Compound 29, α-[[(2-chloro-6-methylphenyl)sulfonyl]amino]-(αS)-3,4-dihydro-4-oxo-6-[(1E)-3-(2-pyridinylamino)-1-propenyl]-2-quinazolinepropanoic acid] | 38 nM | 240 nM |
| CN(C)c1cccc2c(S(=O)(=O)N[C@@H](Cc3nc4ccc(/C=C/CNC5=NCCN5)cc4c(=O)[nH]3)C(=O)O)cccc12 [Compound 22, 6-[(1E)-3-[(4,5-dihydro-1H-imidazol-2-yl)amino]-1-propenyl]-α-[[[5-(dimethylamino)-1-naphthalenyl]sulfonyl]amino]-(αS)-3,4-dihydro-4-oxo-2-quinazolinepropanoic acid] | > 500 nM | 1200 nM |
| O=C(O)[C@H](Cc1nc2ccc(/C=C/CNc3ccccn3)cc2c(=O)[nH]1)NS(=O)(=O)c1ccc2ccccc2c1 [Compound 24, (αS)-3,4-dihydro-α-[(2-naphthalenylsulfonyl)amino]-4-oxo-6-[(1E)-3-(2-pyridinylamino)-1-propenyl]-2-quinazolinepropanoic acid] | 23 nM | 1400 nM |
| Cc1noc(C)c1S(=O)(=O)N[C@@H](Cc1nc2ccc(/C=C/CNc3ccccn3)cc2c(=O)[nH]1)C(=O)O [Compound 37, α-[[(3,5-dimethyl-4-isoxazolyl)sulfonyl]amino]-(αS)-3,4-dihydro-4-oxo-6-[(1E)-3-(2-pyridinylamino)-1-propenyl]-2-quinazolinepropanoic acid] | 54 nM | 700 nM |
| O=C(O)[C@H](Cc1nc2ccc(/C=C/CNC3=NCCN3)cc2c(=O)[nH]1)NS(=O)(=O)c1ccc(-c2ccccn2)s1 [Compound 6, 6-[(1E)-3-[(4,5-dihydro-1H-imidazol-2-yl)amino]-1-propenyl]-(αS)-3,4-dihydro-4-oxo-α-[[[5-(2-pyridinyl)-2-thienyl]sulfonyl]amino]-2-quinazolinepropanoic Acid] | 5.3 nM | 41 nM |
| Cc1cc(C)c(S(=O)(=O)N[C@@H](Cc2nc3ccc(/C=C/CNC(=O)NCc4ccccc4)cc3c(=O)[nH]2)C(=O)O)c(C)c1 [Compound 62, (αS)-3,4-dihydro-4-oxo-6-[(1E)-3-[[[(phenylmethyl)amino]carbonyl]amino]-1-propenyl]-α-[[(2,4,6-trimethylphenyl)sulfonyl]amino]-2-quinazolinepropanoic acid] | 79 nM | 4100 nM |
| O=C(O)[C@H](Cc1nc2ccc(/C=C/CNc3ccccn3)cc2c(=O)[nH]1)NS(=O)(=O)c1ccc(-c2ccon2)s1 [Compound 31, (αS)-3,4-dihydro-α-[[[5-(3-isoxazolyl)-2-thienyl]sulfonyl]amino]-4-oxo-6-[(1E)-3-(2-pyridinylamino)-1-propenyl]-2-quinazolinepropanoic acid] | 70 nM | 1800 nM |
| Cc1c(C)c(C)c(S(=O)(=O)N[C@@H](Cc2nc3ccc(/C=C/CCNC4=NCCN4)cc3c(=O)[nH]2)C(=O)O)c(C)c1C [Compound 42, 6-[(1E)-4-[(4,5-dihydro-1H-imidazol-2-yl)amino]-1-butenyl]-(αS)-3,4-dihydro-4-oxo-α-[[(2,3,4,5,6-pentamethylphenyl)sulfonyl]amino]-2-quinazolinepropanoic acid] | 5.4 nM | 60 nM |
| O=C(NC/C=C/c1ccc2nc(C[C@H](NS(=O)(=O)c3cccs3)C(=O)O)[nH]c(=O)c2c1)NCc1ccccc1 [Compound 72, (αS)-3,4-dihydro-4-oxo-6-[(1E)-3-[[[(phenylmethyl)amino]carbonyl]amino]-1-propenyl]-α-[(2-thienylsulfonyl)amino]-2-quinazolinepropanoic acid] | 1300 nM | 17000 nM |
| Cc1c(C)c(C)c(S(=O)(=O)N[C@@H](Cc2nc3ccc(/C=C/CNC(=O)NCc4ccccc4)cc3c(=O)[nH]2)C(=O)O)c(C)c1C [Compound 49, (αS)-3,4-dihydro-4-oxo-α-[[(2,3,4,5,6-pentamethylphenyl)sulfonyl]amino]-6-[(1E)-3-[[(benzylamino)carbonyl]amino]-1-propenyl]-2-quinazolinepropanoic acid] | 8.8 nM | 820 nM |
| O=C(Nc1ccccc1)N[C@@H](Cc1nc2ccc(/C=C/CNc3ccccn3)cc2c(=O)[nH]1)C(=O)O [Compound 12, (αS)-3,4-dihydro-4-oxo-α-[[(phenylamino)carbonyl]amino]-6-[(E)-3-(2-pyridinylamino)-1-propenyl]-2-quinazolinepropanoic Acid] | > 500 nM | 18000 nM |
| Cc1nn(C)c(Cl)c1S(=O)(=O)N[C@@H](Cc1nc2ccc(/C=C/CNC(=O)NCc3ccccc3)cc2c(=O)[nH]1)C(=O)O [Compound 65, α-[[(5-chloro-1,3-dimethyl-1H-pyrazol-4-yl)sulfonyl]amino]-(αS)-3,4-dihydro-4-oxo-6-[(1E)-3-[[[(phenylmethyl)amino]carbonyl]amino]-1-propenyl]-2-quinazolinepropanoic acid] | 160 nM | 4100 nM |
| O=C(N[C@@H](Cc1nc2ccc(/C=C/CNC3=NCCN3)cc2c(=O)[nH]1)C(=O)O)OCc1ccccc1 [Compound 2, 6-[(1E)-3-[(4,5-dihydro-1H-imidazol-2-yl)amino]-1-propenyl]-(αS)-3,4-dihydro-4-oxo-α-[[(phenylmethoxy)carbonyl]amino]-2-quinazolinepropanoic Acid] | 55 nM | 560 nM |
| O=C(NC/C=C/c1ccc2nc(C[C@H](NS(=O)(=O)CCc3cccc4ccccc34)C(=O)O)[nH]c(=O)c2c1)NCc1ccccc1 [Compound 76, (αS)-3,4-dihydro-α-[[[2-(1-naphthalenyl)ethyl]sulfonyl]amino]-4-oxo-6-[(1E)-3-[[[(phenylmethyl)amino]carbonyl]amino]-1-propenyl]-2-quinazolinepropanoic acid] | > 500 nM | 45000 nM |
